Assay results: patent US7811352B2, “Fertilizer compositions and methods of using” (priority 2005, dated 2010)

Legend:
Type in all cases: in vivo
Bermuda grass = test: Turfgrass quality and color ratings, Bermuda grass golf course fairways (Example 13); conditions: scale 1-10
Experimental: (§1) In this Example, the effect of a fertilizer comprising lysine on turfgrass growth was examined. The effects of lysine (HCl) and LIQUID LYSINE on a common type of golf course fairway quality turfgrass (Bermuda green) were compared with those of CoRoN® brand fertilizer.
Six fertilizer treatments comprising two concentrations of each fertilizer composition (Coron® (N—P—K, 14-2-14), LIQUID LYSINE (N—P—K, 10-2-1), and lysine (HCl) (N—P—K, 15-2-1)) were prepared and applied to 3 replications of Bermuda grass for use on golf course fairways. The lysine (HCl) was applied as a granular using a Scotts 2 foot drop spreader on a setting of 4.5. The solutions of LIQUID LYSINE and Coran were applied using a Birchmeier backpack sprayer with a 5 foot spray pattern. Each fertilizer treatment was applied in concentrations 3.0 lb N/1000 ft^2 and 6.0 lb N/1000 ft^2. Plot size was 5 ft×60 ft set up as a randomized complete block. Irrigation was applied following application, Plots were rated for turfgrass quality and color (scale of 1-10 where 10=dark green turf 1=dead/brown turf and 6=minimally acceptable turf) and phytotoxicity (% burn) throughout the study period and compared with two untreated plots. […] All data was subject to statistical analysis and significant means were determined.

[1] = system: creeping bentgrass for greens; test: Turfgrass quality and color ratings, creeping bentgrass for greens (Example 12); conditions: scale 1-10
Source text: as §1, with “greens” for “fairway”, “(creeping bentgrass for greens)” for “(Bermuda green)”, “fertilizer (commercially available from Helena Chemical Co., Collierville, Tenn.).” for “fertilizer.”
Nine fertilizer treatments comprising three concentrations of each fertilizer composition (Corono® (N—P—K, 14-2-14), LIQUID LYSINE (N—P—K, 10-2-1), and lysine (HCl) (N—P—K, 15-2-1)) were prepared and applied to 3 replications of creeping bentgrass for use on golf course greens. The lysine (HCl) (250 g) was dissolved in water (500 mL) prior to application. Each fertilizer treatment was applied in concentrations of 0.7 g N/m^2, 1.4 g N/m^2, and 2.8 g N/m^2. All applications were made using an Ortho Heavy Duty hand pump sprayer with all products being mixed with 126 mL of water for application. Plot size was 2 ft×6 ft set up as a randomized complete block. Irrigation was applied following application. Plots were rated for turfgrass quality and color (scale of 1-10 where 10=dark green turf, 1=dead/brown turf, and 6minimally acceptable turf) and phytotoxicity (% bum) throughout the study period. Quality, color, and phytotoxicity were measured on day 7, day 14, day 2I1, day 28, day 35, and day 42 after application. All data was subject to statistical analysis and significant means were determined.

[2] = system: lawn height, Kentucky bluegrass; test: Color rating of lawn height Kentucky bluegrass after fertilization (Example 5); conditions: about two weeks after application
Experimental: In this Example, the efficacy of fertilizers on lawn height, Kentucky bluegrass was examined. Fertilizer compositions according to several embodiments of the present disclosure were prepared and compared to the commercial fertilizer products, urea 46-0-0 (granular) fertilizer, Lebanon fertilizer 21-0-12 (granular, commercially available from Lebanon Seaboard Corporation, Lebanon, Pa.) and Milorganite 6-2-0 (granular, commercially available from Milorganite, Milwaukee, Wis.). The fertilizer compositions were applied to the turf grass prior to winter dormancy at a rate equivalent to supplying about 1.0 pounds of nitrogen (N) per 1000 square feet. Each of the fertilizer compositions were applied at substantially equal rates of lbs of nitrogen (N) per 1000 square feet. Table 2 illustrates the response of lawn height, Kentucky bluegrass to fertilization using various exemplary fertilizers of the present invention, taken about two weeks after application of the fertilizer. The letters in the Color and Injury columns correspond to Duncan's Multiple Range Test.

[3] = Rate 3.0 lb N/1000 ft^2, Day 12
[4] = Rate 3.0 lb N/1000 ft^2, Day 19
[5] = Rate 3.0 lb N/1000 ft^2, Day 26
[6] = Rate 3.0 lb N/1000 ft^2, Day 33
[7] = Rate 3.0 lb N/1000 ft^2, Day 40
[8] = Rate 3.0 lb N/1000 ft^2, Day 47
[9] = Rate 6.0 lb N/1000 ft^2, Day 12
[10] = Rate 6.0 lb N/1000 ft^2, Day 19
[11] = Rate 6.0 lb N/1000 ft^2, Day 26
[12] = Rate 6.0 lb N/1000 ft^2, Day 33
[13] = Rate 6.0 lb N/1000 ft^2, Day 40
[14] = Rate 6.0 lb N/1000 ft^2, Day 47

## Cl.NCCCC[C@H](N)C(=O)O [Lys (HCl) 15% N, L-lysine monohydrochloride]
Bermuda grass; Rate 3.0 lb N/1000 ft^2, Day 7
  Color Ratings - Bermuda Grass: 5.7ab
  Quality Ratings - Bermuda Grass: 6.7a
Bermuda grass; [3]
  Color Ratings - Bermuda Grass: 6.0b
  Quality Ratings - Bermuda Grass: 7.3ab
Bermuda grass; [4]
  Color Ratings - Bermuda Grass: 6.7a
  Quality Ratings - Bermuda Grass: 7.3ab
Bermuda grass; [5]
  Color Ratings - Bermuda Grass: 7.3a
  Quality Ratings - Bermuda Grass: 7.7ab
Bermuda grass; [6]
  Color Ratings - Bermuda Grass: 7.7ab
  Quality Ratings - Bermuda Grass: 8.0a
Bermuda grass; [7]
  Color Ratings - Bermuda Grass: 7.0b
  Quality Ratings - Bermuda Grass: 7.0b
Bermuda grass; [8]
  Color Ratings - Bermuda Grass: 7.0bc
  Quality Ratings - Bermuda Grass: 7.3ab
Bermuda grass; Rate 6.0 lb N/1000 ft^2, Day 7
  Color Ratings - Bermuda Grass: 5.3ab
  Quality Ratings - Bermuda Grass: 6.7a
Bermuda grass; [9]
  Color Ratings - Bermuda Grass: 6.7a
  Quality Ratings - Bermuda Grass: 7.3ab
Bermuda grass; [10]
  Color Ratings - Bermuda Grass: 7.0a
  Quality Ratings - Bermuda Grass: 7.3ab
Bermuda grass; [11]
  Color Ratings - Bermuda Grass: 7.7a
  Quality Ratings - Bermuda Grass: 7.7ab
Bermuda grass; [12]
  Color Ratings - Bermuda Grass: 7.7ab
  Quality Ratings - Bermuda Grass: 7.7a
Bermuda grass; [13]
  Color Ratings - Bermuda Grass: 7.3ab
  Quality Ratings - Bermuda Grass: 7.0b
Bermuda grass; [14]
  Color Ratings - Bermuda Grass: 7.3ab
  Quality Ratings - Bermuda Grass: 7.7a
[1]; Rate 0.7 gN/m^2, Day 7
  Color Ratings - Creeping Bentgrass: 6.0abc
  Quality Ratings - Creeping Bentgrass: 5.3a
[1]; Rate 0.7 gN/m^2, Day 14
  Color Ratings - Creeping Bentgrass: 6.0cd
  Quality Ratings - Creeping Bentgrass: 6.3cd
[1]; Rate 0.7 gN/m^2, Day 21
  Color Ratings - Creeping Bentgrass: 6.3a
  Quality Ratings - Creeping Bentgrass: 6.7a
[1]; Rate 0.7 gN/m^2, Day 28
  Color Ratings - Creeping Bentgrass: 6.3ab
  Quality Ratings - Creeping Bentgrass: 6.3a
[1]; Rate 0.7 gN/m^2, Day 35
  Color Ratings - Creeping Bentgrass: 6.3a
  Quality Ratings - Creeping Bentgrass: 6.3ab
[1]; Rate 0.7 gN/m^2, Day 42
  Color Ratings - Creeping Bentgrass: 7.3a
  Quality Ratings - Creeping Bentgrass: 7.0a
[1]; Rate 1.4 gN/m^2, Day 7
  Color Ratings - Creeping Bentgrass: 5.0c
  Quality Ratings - Creeping Bentgrass: 5.7a
[1]; Rate 1.4 gN/m^2, Day 14
  Color Ratings - Creeping Bentgrass: 5.0e
  Quality Ratings - Creeping Bentgrass: 5.7de
[1]; Rate 1.4 gN/m^2, Day 21
  Color Ratings - Creeping Bentgrass: 6.0a
  Quality Ratings - Creeping Bentgrass: 7.0a
[1]; Rate 1.4 gN/m^2, Day 28
  Color Ratings - Creeping Bentgrass: 6.7ab
  Quality Ratings - Creeping Bentgrass: 7.0a
[1]; Rate 1.4 gN/m^2, Day 35
  Color Ratings - Creeping Bentgrass: 5.7ab
  Quality Ratings - Creeping Bentgrass: 5.3cd
[1]; Rate 1.4 gN/m^2, Day 42
  Color Ratings - Creeping Bentgrass: 7.0a
  Quality Ratings - Creeping Bentgrass: 6.7a
[1]; Rate 2.8 gN/m^2, Day 7
  Color Ratings - Creeping Bentgrass: 5.3bc
  Quality Ratings - Creeping Bentgrass: 5.7a
[1]; Rate 2.8 gN/m^2, Day 14
  Color Ratings - Creeping Bentgrass: 5.0e
  Quality Ratings - Creeping Bentgrass: 5.3e
[1]; Rate 2.8 gN/m^2, Day 21
  Color Ratings - Creeping Bentgrass: 6.0a
  Quality Ratings - Creeping Bentgrass: 7.0a
[1]; Rate 2.8 gN/m^2, Day 28
  Color Ratings - Creeping Bentgrass: 6.3ab
  Quality Ratings - Creeping Bentgrass: 7.0a
[1]; Rate 2.8 gN/m^2, Day 35
  Color Ratings - Creeping Bentgrass: 5.0b
  Quality Ratings - Creeping Bentgrass: 4.3 days
[1]; Rate 2.8 gN/m^2, Day 42
  Color Ratings - Creeping Bentgrass: 6.3a
  Quality Ratings - Creeping Bentgrass: 6.7a

## NC(N)=O [Urea, urea, reference compound]
[2]; 1.09 Lbs. product/1000 square feet
  Color 1-9 (9 = dark green): 7.0
[2]; 2.17 Lbs. product/1000 square feet
  Color 1-9 (9 = dark green): 7.3
[2]; 6.51 Lbs. product/1000 square feet
  Color 1-9 (9 = dark green): 7.7
